Experimental data published in patent publication US5525627A, “Esters of acyl carnitines with long-chain aliphatic alcohols and pharmaceutical compositions containing same having antimycotic activity” (Sigma-Tau Industrie Farmaceutiche Riunite S.p.A., priority 1992, dated 1996).

Tests used:
Mucor mucedo (ATCC 7941) = assay: MIC for filamentous fungi; type: cell-based; details: ATCC7941, read-out: Minimal Inhibitory Concentration (MIC)
Description: (§1) The following strains were used (the number of strains is in brackets): Aspergillus (5); Fusarium (1); Mucor (1); Penicillium (1).
(§2) The tested substances were: ST 712, ST 722, ST 982, ST 983, ST 1000, ST 1001, ST 1032, ST 1033, ST 1034, ST 1036, ST 1037, ST 1038, ST 1050, ST 1051, ST 1052, ST 1053. The assay medium was the same as the one used in the previous study. The conidia from 72-hour cultures in Sabouraud agar, collected by washing with Sabouraud medium and Tween 80 (one drop of Tween per 10 ml of medium), were utilized as inoculum (5.0×10^4 CFU/ml).
(§3) The assay was performed using the same procedure as described for yeast-like fungi.
(§4) Also the evaluation of MIC and MFC was as reported previously.

[1] = tested on: Aspergillus fumigatus (ATCC 28212); assay: MIC for filamentous fungi; type: cell-based; details: ATCC28212, read-out: Minimal Inhibitory Concentration (MIC)
Description: as §1, §2, §3, §4

[2] = tested on: Aspergillus niger (ATCC 16404); assay: MIC for filamentous fungi; type: cell-based; details: ATCC16404, read-out: Minimal Inhibitory Concentration (MIC)
Description: as §1, §2, §3, §4

[3] = tested on: Aspergillus fumigatus (C/1); assay: MIC for filamentous fungi; type: cell-based; details: read-out: Minimal Inhibitory Concentration (MIC)
Description: as §1, §2, §3, §4

[4] = tested on: Aspergillus fumigatus (2/A); assay: MIC for filamentous fungi; type: cell-based; details: read-out: Minimal Inhibitory Concentration (MIC)
Description: as §1, §2, §3, §4

[5] = tested on: Aspergillus fumigatus (1/A); assay: MIC for filamentous fungi; type: cell-based; details: read-out: Minimal Inhibitory Concentration (MIC)
Description: as §1, §2, §3, §4

[6] = tested on: Candida pseudotropicalis (EC 1); assay: MIC for yeast and yeast-like strains; type: cell-based; details: Kluyveromyces marxianus; 48 hours, 35° C.; read-out: Minimal Inhibitory Concentration (MIC)
Method: (§5) The following strains were used (the number of strains is in brackets): Candida (13); Criptococcus (2); Saccharormyces (1); Torulopsis (1).
(§6) Yeast Nitrogen Base supplemented with 0.15% asparagine and 1.0% glucose (as carbon source) was the medium utilized in the assays.
(§7) This medium was buffered with 0.165 M 2-(N-morpholino) propane sulfonic acid (MOPS), a non-chelating buffer.
(§8) Antimicrob. Agents Cheroother. Aug. 34.8:1542-1545).
(§9) The inoculum was prepared from an overnight broth culture (a 48-hour culture only for Cryptococcus) in Sabouraud broth and appropriately diluted to yield a final suspension containing approximately 5.0×10^6 Colony Forming Units per ml (CFU/ml), when compared to the Mc Farland's standard control (BRAY W. E., Clinical Laboratory Methods, 5th Ed. C. V. MOSBY, St. Louis, Mo, 1957).
(§10) After further diluting (1:50), a […] volume of such fungal suspensions and an equal volume of the substance solutions were distributed into each well of a microtiter plate (96 wells, round bottom). Such a procedure eventually allowed for an "in vitro" antimycotic activity assay utilizing final fungal inocula of approximately 5.0×10^4 CFU/ml.

[7] = tested on: Candida albicans (ATCC 2091); assay: MIC for yeast and yeast-like strains; type: cell-based; details: ATCC2091, 48 hours, 35° C., read-out: Minimal Inhibitory Concentration (MIC)
Method: as §5, §6, §7, §8, §9, §10

mice = assay: Assessment of behaviour and mortality in mice (Irwin's method); set-up: species or system mice (male Crl:(CD-1)(ICR)BR); details: mouse, in vivo, po
Method: (§11) ASSESSMENT OF BEHAVIOUR AND MORTALITY IN MICE
(§12) The assessment of normal behaviour in mice was carried out following S. Irwin's method (Psychopharmacologia, 13, 222 [1968]). This method allows alterations in some behavioural, neurophysiologic and neurovegetative parameters to be detected, which are directly observable by the researcher. The study was conducted using male Crl:(CD-1)(ICR)BR mice (Charles River-Italy) weighing 22-25 g. following oral administration of the compounds suspended in carboxymethylcellulose (0.5% by weight in H2 O) to groups of 4 animals/dose.
(§13) The animals were continously kept under observation for five hours following treatment and twice a day in the subsequent five days. Mortality was also observed during the overall test period.

[8] = as above; set-up: species or system mice (male Crl:(CD-1)(ICR)BR); details: mouse, in vivo; oral, dose 1000 (unit inferred), 4 animals/dose
Method: as §11, §12, §13

yeast-like fungi = assay: MIC / MFC for yeast-like fungi, all strains; type: cell-based, Candida, Cryptococcus, Saccharomyces, Torulopsis; details: versus susceptible strains; read-out: Mean MIC values
Method: as §5, §6
(§14) This medium was buffered with 0.165 M 2-(N-morpholino) propane sulfonic acid (MOPS), a non-chelating buffer. […]
as §9, §10
(§15) The minimal fungicidal concentration was evaluated by spot-transferring onto Petri dishes, containing Sabouraud agar, 0.01-ml volumes of all the samples showing no visible fungal growth.

[9] = tested on: Torulopsis candida (D.S.); assay: MIC for yeast and yeast-like strains; type: cell-based; details: Suzukiozyma candida; 48 hours, 35° C.; read-out: Minimal Inhibitory Concentration (MIC)
Method: as §5, §6, §14, §9, §10

Candida albicans (Ca 2) = assay: MIC for yeast and yeast-like strains; type: cell-based; details: 48 hours, 35° C., read-out: Minimal Inhibitory Concentration (MIC)
Method: as §5, §6, §14, §9, §10

Candida albicans (562) = assay: MIC for yeast and yeast-like strains; type: cell-based; details: 48 hours, 35° C., read-out: Minimal Inhibitory Concentration (MIC)
Method: as §5, §6, §14, §9, §10

[10] = tested on: Cryptococcus neoformans (4711); assay: MIC for yeast and yeast-like strains; type: cell-based; details: 48 hours, 35° C., read-out: Minimal Inhibitory Concentration (MIC)
Method: as §5, §6, §14, §9, §10

[11] = tested on: Saccharomyces cerevisiae (ATCC 7752); assay: MIC for yeast and yeast-like strains; type: cell-based; details: ATCC7752, 48 hours, 35° C., read-out: Minimal Inhibitory Concentration (MIC)
Method: as §5, §6, §14, §9, §10

Candida albicans (A 54) = assay: MIC for yeast and yeast-like strains; type: cell-based; details: 48 hours, 35° C., read-out: Minimal Inhibitory Concentration (MIC)
Method: as §5, §6, §14, §9, §10

[12] = tested on: Candida tropicalis (5705); assay: MIC for yeast and yeast-like strains; type: cell-based; details: 48 hours, 35° C., read-out: Minimal Inhibitory Concentration (MIC)
Method: as §5, §6, §14, §9, §10

filamentous fungi = assay: MIC / MFC for filamentous fungi, all strains; type: cell-based, Aspergillus, Fusarium, Mucor, Penicillium; details: versus susceptible strains; read-out: Mean MIC values
Description: as §1, §2, §3, §4

Candida albicans (PG) = assay: MIC and MFC for yeast and yeast-like strains; type: cell-based; details: 48 hours, 35° C., read-out: Minimal Inhibitory Concentration (MIC)
Method: as §5, §6, §7, §8, §9, §10, §15

CCCCCCCCCCCOC(=O)C[C@H](C[N+](C)(C)C)OC(=O)C(C)C [ST 712, ISOBUTYRYL-L-CARNITINE UNDECYL ESTER CHLORIDE]
MIC (Mucor mucedo (ATCC 7941)): 50 µg/mL | MIC [1]: 25 µg/mL | MIC [2]: 50 µg/mL | MIC [3]: 25 µg/mL | MIC [4]: 25 µg/mL | MIC [5]: 25 µg/mL | MIC [6]: 12.5 µg/mL | MIC [7]: 12.5 µg/mL | Symptoms (mice): NONE | mortality at 120 h [8]: 0% | MIC (yeast-like fungi): 9.37 µg/mL | MIC [9]: 12.5 µg/mL | MIC (Candida albicans (Ca 2)): 6.25 µg/mL | MIC (Candida albicans (562)): 12.5 µg/mL | MIC [10]: 3.12 µg/mL | MIC [11]: 6.25 µg/mL | MIC (Candida albicans (A 54)): 12.5 µg/mL | MIC [12]: 3.12 µg/mL | MIC (filamentous fungi): 30 µg/mL | MIC (Candida albicans (PG)): 12.5 µg/mL
